The values that follow are results of earlier work, collected in US20240041983A1, “IMPROVED PHARMACEUTICAL FORMULATIONS OF GLP-1 RECEPTOR AGONISTS” (CYPRUMED GMBH, priority 2020, published 2024).

For this data set the following is noted: in humans.

semaglutide: the t½ was ~1 week.
